# Measurements published in the supplement of paper PMC4314810.
# ± gives the standard deviation of the averaged measurements.
# System: MCF7
# Experiment: HRG-induced Akt activation (dPAkt = log2 pAkt/Akt HRG-stimulated minus log2 pAkt/Akt basal) (log2 ratio difference); higher = stronger HRG-induced Akt(T308) phosphorylation
# Details: miRNA mimic concentration 10 nM; time after transfection 72 h; heregulin 10 ng/ml; stimulation time 1 h
# Outline: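 MCF7 cells were plated […] in 96-well plates and transfected in two biological replicates with a library of 879 miRNA mimics (10 nM final) using Lipofectamine RNAiMax; 72 h later they were stimulated for 1 h with 10 ng/ml heregulin-beta1 or left unstimulated. After fixation in 4% PFA, phospho-Akt(T308) and total Akt were measured by In-Cell Western on an Odyssey, with signals corrected for column-wise fixation decay. Heregulin-induced Akt activation is the stimulated minus unstimulated value of the log ratio of phospho-Akt to total Akt, averaged over replicates. That log ratio is log2(pAkt/Akt).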
row,Sequence,HRG-induced Akt activation (log2)
1,CACAAGGUAUUGGUAUUACCU,1.79 ± 0.25
2,CUGUACAGCCUCCUAGCUUUCC,2.26 ± 0.15
3,CAAAGCGCUUCCCUUUGGAGC,1.259 ± 0.0069
4,CAAAGUGCUCAUAGUGCAGGUAG,1.34 ± 0.39
5,UACUCAAAAAGCUGUCAGUCA,1.02 ± 0.51
6,AGGGAUCGCGGGCGGGUGGCGGCCU,1.03 ± 0.13
7,UAUGGCUUUUCAUUCCUAUGUGA,1.12 ± 0.29
8,UUCAAGUAAUCCAGGAUAGGCU,1.19 ± 0.24
9,ACUGCCCCAGGUGCUGCUGG,1.25 ± 0.16
10,AAACUCUACUUGUCCUUCUGAGU,0.945 ± 0.39
11,CUACAAAGGGAAGCCCUUUC,1.62 ± 0.21
12,CGAAAACAGCAAUUACCUUUGC,1.364 ± 0.0018
13,GUUGGAGGAUGAAAGUACGGAGUGAU,0.878 ± 1.2
14,AACAUUCAACCUGUCGGUGAGU,2.38 ± 0.33
15,UCUGCAGGGUUUGCUUUGAG,1.07 ± 0.059
16,AGAGGUAGUAGGUUGCAUAGUU,1.08 ± 0.21
17,CACUAGAUUGUGAGCUCCUGGA,1.69 ± 0.57
18,UCCGAGCCUGGGUCUCCCUCUU,1.37 ± 0.23
19,UGGAAGACUAGUGAUUUUGUUGU,2.15 ± 0.38
20,UCUACAGUGCACGUGUCUCCAG,1.65 ± 0.062
21,UUUUCAACUCUAAUGGGAGAGA,1.48 ± 0.1
22,UUUAACAUGGGGGUACCUGCUG,1.59 ± 0.42
23,UCUGGCUCCGUGUCUUCACUCCC,0.873 ± 0.15
24,AACUGGCCUACAAAGUCCCAGU,2.21 ± 0.14

row,Sequence,HRG-induced Akt activation (log2)
1,CAAGUCUUAUUUGAGCACCUGUU,1.94 ± 0.12
2,ACUGGGGGCUUUCGGGCUCUGCGU,1.6 ± 0.11
3,GGAUAUCAUCAUAUACUGUAAG,1.6 ± 0.044
4,CAUCUUCCAGUACAGUGUUGGA,1.73 ± 0.073
5,UAUGGCACUGGUAGAAUUCACU,1.65 ± 0.3
6,AAAAGUAAUUGCGGUCUUUGGU,1.32 ± 0.034
7,UCUGGGCAACAAAGUGAGACCU,0.753 ± 0.69
8,CAGUGCCUCGGCAGUGCAGCCC,1.45 ± 0.064
9,ACUCUUUCCCUGUUGCACUAC,1.677 ± 0.0095
10,UCGGGGAUCAUCAUGUCACGAGA,1.93 ± 0.17
11,UUUGGCACUAGCACAUUUUUGCU,1.535 ± 0.007
12,ACACAGGGCUGUUGUGAAGACU,1.74 ± 0.1
13,CUCCCACUGCUUCACUUGACUA,1.32 ± 0.27
14,UCUAGGCUGGUACUGCUGA,1.57 ± 0.13
15,UGUCUCUGCUGGGGUUUCU,1.89 ± 0.58
16,CAUCCCUUGCAUGGUGGAGGG,1.97 ± 0.25
17,CCAGACAGAAUUCUAUGCACUUUC,1.93 ± 0.7
18,ACUGGACUUAGGGUCAGAAGGC,2.01 ± 0.38
19,AAAAACUGAGACUACUUUUGCA,1.33 ± 0.15
20,CAACCUGGAGGACUCCAUGCUG,0.949 ± 0.19
21,AAUCCUUUGUCCCUGGGUGAGA,1.76 ± 0.094
22,CAGUGCAAUGUUAAAAGGGCAU,0.895 ± 0.16
23,UUGGGAUCAUUUUGCAUCCAUA,1.13 ± 0.3
24,GCCCUCCGCCCGUGCACCCCG,1.17 ± 0.14

row,Sequence,HRG-induced Akt activation (log2)
1,AUCAUAGAGGAAAAUCCACGU,2.13 ± 0.46
2,CUUUCAGUCGGAUGUUUACAGC,1.62 ± 0.098
3,GAUGAGCUCAUUGUAAUAUGAG,1.71 ± 0.24
4,UGUCUUACUCCCUCAGGCACAU,1.47 ± 0.054
5,GAAGUGCUUCGAUUUUGGGGUGU,1.12 ± 0.22
6,AAAGUGCAUCCUUUUAGAGGUU,0.411 ± 0.64
7,AGGGGCUGGCUUUCCUCUGGUC,1.57 ± 0.17
8,UCCCUGUCCUCCAGGAGCUCACG,1.79 ± 0.13
9,AUCGGGAAUGUCGUGUCCGCCC,1.6 ± 0.039
10,GUUCUCCCAACGUAAGCCCAGC,1.62 ± 0.15
11,CAUCUUACUGGGCAGCAUUGGA,2.05 ± 0.12
12,GCAGGAACUUGUGAGUCUCCU,1.8 ± 0.32
13,AGGGGUGCUAUCUGUGAUUGA,1.68 ± 0.19
14,ACUGGCUAGGGAAAAUGAUUGGAU,1.24 ± 0.61
15,AGGCACGGUGUCAGCAGGC,1.2 ± 0.26
16,UUAUGGUUUGCCUGGGACUGAG,1.74 ± 0.28
17,AUGCUGACAUAUUUACUAGAGG,0.706 ± 0.25
18,UAGCAGCACGUAAAUAUUGGCG,2.03 ± 0.15
19,UCGUACCGUGAGUAAUAAUGCG,1.27 ± 0.031
20,UGGGUCUUUGCGGGCGAGAUGA,1.89 ± 0.21
21,UGGCCCUGACUGAAGACCAGCAGU,1.11 ± 0.22
22,ACUCAAACUGUGGGGGCACU,0.915 ± 0.061
23,AAAGUUCUGAGACACUCCGACU,1.35 ± 0.082
24,UAGCAGCACAUCAUGGUUUACA,1.59 ± 0.025

row,Sequence,HRG-induced Akt activation (log2)
1,UUAUCAGAAUCUCCAGGGGUAC,2.16 ± 0.2
2,UUUGGUCCCCUUCAACCAGCUA,1.61 ± 0.066
3,CUACAAAGGGAAGCACUUUCUC,1.96 ± 0.15
4,UGAGGGGCAGAGAGCGAGACUUU,1.83 ± 0.26
5,CGUGUAUUUGACAAGCUGAGUU,2.29 ± 0.19
6,UUGCAGCUGCCUGGGAGUGACUUC,0.96 ± 0.045
7,CUUUCAGUCAGAUGUUUGCUGC,1.67 ± 0.24
8,UCUCACACAGAAAUCGCACCCGU,1.92 ± 0.12
9,GCAUGGGUGGUUCAGUGG,1.52 ± 0.11
10,UGGAUUUCUUUGUGAAUCACCA,1.87 ± 0.11
11,ACCUGGCAUACAAUGUAGAUUU,1.81 ± 0.29
12,UGUGCAAAUCUAUGCAAAACUGA,0.8263 ± 0.0053
13,UACCCUGUAGAUCCGAAUUUGUG,1.47 ± 0.25
14,UAAGUGCUUCCAUGUUUUAGUAG,1.08 ± 0.1
15,AACAAUAUCCUGGUGCUGAGUG,1.79 ± 0.41
16,CUGGGAGAAGGCUGUUUACUCU,1.04 ± 0.2
17,ACUCAAAAUGGGGGCGCUUUCC,1.51 ± 0.055
18,UGGACGGAGAACUGAUAAGGGU,1.48 ± 0.21
19,UGAGAACUGAAUUCCAUGGGUU,2.55 ± 0.058
20,CAAAGUGCCUCCCUUUAGAGUG,0.831 ± 0.84
21,AUCCGCGCUCUGACUCUCUGCC,1.53 ± 0.14
22,UCGUGUCUUGUGUUGCAGCCGG,1.14 ± 0.13
23,UGUGCAAAUCCAUGCAAAACUGA,0.657 ± 0.2
24,GUGGCUGCACUCACUUCCUUC,1.16 ± 0.076

row,Sequence,HRG-induced Akt activation (log2)
1,AGACCAUGGGUUCUCAUUGU,1.18 ± 0.43
2,GCUAUUUCACGACACCAGGGUU,1.693 ± 0.0017
3,AACACACCUAUUCAAGGAUUCA,1.11 ± 0.37
4,CAGUGCAAUGAUGAAAGGGCAU,1.31 ± 0.024
5,GGCAGGUUCUCACCCUCUCUAGG,2.11 ± 0.13
6,UUCACAAGGAGGUGUCAUUUAU,1.442 ± 0.013
7,UGCUAUGCCAACAUAUUGCCAU,1.72 ± 0.27
8,GAAAUCAAGCGUGGGUGAGACC,1.77 ± 0.15
9,UCCAGUACCACGUGUCAGGGCCA,0.976 ± 0.31
10,CUGCCAAUUCCAUAGGUCACAG,1.47 ± 0.11
11,AUGGGUGAAUUUGUAGAAGGAU,1.81 ± 0.12
12,AGGUUGUCCGUGGUGAGUUCGCA,1.02 ± 0.18
13,UGUAGUGUUUCCUACUUUAUGGA,1.77 ± 0.26
14,GAGUGCCUUCUUUUGGAGCGUU,1.04 ± 0.043
15,UGAGUAUUACAUGGCCAAUCUC,1.74 ± 0.27
16,UGCCUGUCUACACUUGCUGUGC,1.34 ± 0.089
17,CUUGGUUCAGGGAGGGUCCCCA,1.58 ± 0.43
18,AUCGUGCAUCCUUUUAGAGUGU,1.47 ± 0.099
19,GUUUGCACGGGUGGGCCUUGUCU,1.88 ± 0.072
20,AGAGGCUGGCCGUGAUGAAUUC,1.48 ± 0.024
21,UGCGGGGCUAGGGCUAACAGCA,2.49 ± 0.31
22,UUCACCACCUUCUCCACCCAGC,1.57 ± 0.62
23,UAGAUAAAAUAUUGGUACCUG,1.34 ± 0.55
24,UGCAACUUACCUGAGUCAUUGA,1.61 ± 0.13

row,Sequence,HRG-induced Akt activation (log2)
1,AAAAACUGUAAUUACUUUU,1.15 ± 0.3
2,AAGCCCUUACCCCAAAAAGUAU,1.73 ± 0.12
3,AACCCGUAGAUCCGAACUUGUG,1.11 ± 0.13
4,UGUCUGCCCGCAUGCCUGCCUCU,2.32 ± 0.13
5,GGCUACAACACAGGACCCGGGC,1.88 ± 0.32
6,AGCUACAUCUGGCUACUGGGU,1.48 ± 0.25
7,CUAGGUAUGGUCCCAGGGAUCC,1.26 ± 0.24
8,UCGUGGCCUGGUCUCCAUUAU,1.03 ± 0.11
9,GCUAGUCCUGACUCAGCCAGU,2.19 ± 0.26
10,AUAAGACGAGCAAAAAGCUUGU,1.73 ± 0.05
11,CGGAUGAGCAAAGAAAGUGGUU,1.19 ± 0.07
12,UCUCUGGAGGGAAGCACUUUCUG,1.33 ± 0.18
13,UUUUGCAAUAUGUUCCUGAAUA,1.01 ± 0.24
14,CCUAUUCUUGGUUACUUGCACG,1.29 ± 0.1
15,AGGACCUGCGGGACAAGAUUCUU,1.6 ± 0.091
16,UAGCAGCACAGAAAUAUUGGC,1.42 ± 0.76
17,UGCCUGGGUCUCUGGCCUGCGCGU,1.29 ± 0.18
18,CACCCGUAGAACCGACCUUGCG,1.4 ± 0.22
19,UCACAAGUCAGGCUCUUGGGAC,1.27 ± 0.15
